Assay results as given in PMC6832696 (Viruses, 2019).
Like-named read-outs stand apart in the source and are kept apart here.

Columns and labels:
HIV-1 [1] = settings: HIV-1, TZM-bl cells, 24 h
HIV-1 [2] = experiment: microbe, parasite or virus in culture; settings: Human immunodeficiency virus 1, TZM-bl, 24 h, read-out: EC50-2 (reporter protein expression)
[3] = Toxicity in TZM-bl cells, Cell Tox Green (CTxG) assay (CC50); settings: human, mock-infected TZM-bl cells
EV1 [4] = experiment: microbe, parasite or virus in culture; settings: Enterovirus B, RPE, 48 h, read-out: EC50-1 (CTG assay)
HMPV-GFP [5] = experiment: microbe, parasite or virus in culture; settings: human metapneumovirus, RPE, 96 h, read-out: EC50-2 (reporter protein expression)
FLUAV-GFP [6] = tested on: FLUAV-GFP
RVFV-RFP [7] = experiment: microbe, parasite or virus in culture; settings: Rift Valley fever virus, RPE, 24 h, read-out: EC50-2 (reporter protein expression)
EV1 [8] = tested on: EV1
FLUAV-GFP [9] = experiment: microbe, parasite or virus in culture; settings: Influenza A virus, RPE, read-out: Viability of FLUAV-GFP-infected cells (%)
HMPV-GFP [10] = tested on: HMPV-GFP
EV1 [11] = experiment: EV1 production in RPE cells, plaque assay on A549-Npro cells; type: cell-based, echovirus 1; settings: obatoclax 0.37 μM, emetine 0.12 μM, homoharringtonine 0.12 μM; titrated on A549-Npro cells
[12] = Drug combination experiment: viability of mock-infected RPE cells (CTG); settings: human
RVFV-RFP [13] = settings: RPE cells, fluorescent microscopy and CTG assay
HSV-2 [14] = experiment: HSV-2 production in RPE cells, plaque assay on A549-Npro cells; type: cell-based, herpes simplex virus type 2; settings: 0.12 μM obatoclax, 0.04 μM emetine, 0.37 μM niclosamide, 0.37 μM ganciclovir; titrated on A549-Npro cells
in vitro = settings: human
FLUAV-GFP [15] = experiment: microbe, parasite or virus in culture; settings: Influenza A virus, RPE, 24 h, read-out: EC50-2 (reporter protein expression)
HSV-2 [16] = experiment: microbe, parasite or virus in culture; settings: Human alphaherpesvirus 2, RPE, 72 h, read-out: EC50-1 (CTG assay)
RVFV = experiment: microbe, parasite or virus in culture; type: cell-based; settings: Rift Valley fever virus, RPE, 24 h, read-out: EC50-1 (CTG assay)
HSV-2 [17] = tested on: HSV-2
FLUAV = experiment: microbe, parasite or virus in culture; type: cell-based; settings: Influenza A virus, RPE, 24 h, read-out: EC50-1 (CTG assay)

With `Cc1ccc(C(=O)Nc2ccc(S(=O)(=O)O)c3cc(S(=O)(=O)O)cc(S(=O)(=O)O)c23)cc1NC(=O)c1cccc(NC(=O)Nc2cccc(C(=O)Nc3cc(C(=O)Nc4ccc(S(=O)(=O)O)c5cc(S(=O)(=O)O)cc(S(=O)(=O)O)c45)ccc3C)c2)c1` [Suramin] the “SI (CC50/EC50)” value (HIV-1 [1]) was over 375, the “SI (CC50/EC50)” value (HIV-1 [1]; listed as suramin) was over 375 and the EC50 (HIV-1 [2]) was 80 ± 30 nM. It also gave a CC50 at 24 h [3] of over 30000 nM.
With `CC[C@H]1CN2CCc3cc(OC)c(OC)cc3[C@@H]2C[C@@H]1C[C@H]1NCCc2cc(OC)c(OC)cc21` [Emetine] the EC50 (EV1 [4]) was 120 ± 40 nM, the EC50 (HMPV-GFP [5]) was 140 ± 50 nM and the “Initial screening: FLUAV-mediated GFP expression” value (FLUAV-GFP [6]) was “lowered GFP expression without detectable cytotoxicity”. The EC50 (RVFV-RFP [7]) was 430 ± 100 nM, the “Initial screening: rescue of EV1-infected cells” value (EV1 [8]) was “rescued cells from virus-mediated death” and the viability at 0.01 µM (FLUAV-GFP [9]) was 50%. It also gave a viability at 0.02 µM (FLUAV-GFP [9]) of 51%, a viability at 0.05 µM (FLUAV-GFP [9]) of 66% and a viability at 0.15 µM (FLUAV-GFP [9]) of 68%. For the same compound, the viability at 0.44 µM (FLUAV-GFP [9]) was 76%, the “Initial screening: HMPV-mediated GFP expression” value (HMPV-GFP [10]) was “lowered GFP expression without detectable cytotoxicity” and the “SI (CC50/EC50)” value (HMPV-GFP [10]) was 10. The “EV1 production in RPE cells (plaque assay)” value (“EV1 production in RPE cells” for short) (EV1 [11]) was “lowered the production of EV1”, the viability at 24 h, 0.01 μM [12] was 72% and the viability at 24 h, 0.02 μM [12] was 80%. It also gave a viability at 24 h, 0.05 μM [12] of 76%, a viability at 24 h, 0.15 μM [12] of 76% and a viability at 24 h, 0.44 μM [12] of 80%. For the same compound, the “RVFV-mediated RFP expression” value (RVFV-RFP [13]) was “inhibited RVFV-mediated RFP expression at non-cytotoxic concentrations”, the “HSV-2 production in RPE cells (plaque assay)” value (from here on “HSV-2 production in RPE cells”) (HSV-2 [14]) was “lowered the production of HSV-2” and the CC50 (in vitro) was over 30000 nM. The EC50 (FLUAV-GFP [15]) was 120 ± 30 nM, the EC50 (HSV-2 [16]) was 30 ± 10 nM and the EC50 (RVFV) was 100 ± 20 nM. The “Initial screening: rescue of HSV-2-infected cells” value (HSV-2 [17]) was “rescued cells from virus-mediated death”, the “SI (CC50/EC50)” value (HSV-2 [17]) was 37 and the EC50 (FLUAV) was 130 ± 50 nM.
With `O=C(Nc1ccc([N+](=O)[O-])cc1Cl)c1cc(Cl)ccc1O` [Niclosamide] the “HSV-2 production in RPE cells” value (HSV-2 [14]) was “lowered the production of HSV-2”, the CC50 (in vitro) was 1310 ± 20 nM and the EC50 (HSV-2 [16]) was 430 ± 40 nM. For the same compound, the “Initial screening: rescue of HSV-2-infected cells” value (HSV-2 [17]) was “rescued cells from virus-mediated death” and the “SI (CC50/EC50)” value (HSV-2 [17]) was 3.
With `COC(=O)C[C@](O)(CCCC(C)(C)O)C(=O)O[C@@H]1C(OC)=C[C@]23CCCN2CCc2cc4c(cc2[C@H]13)OCO4` [Homoharringtonine] the EC50 (EV1 [4]) was 140 ± 30 nM, the “Initial screening: rescue of EV1-infected cells” value (EV1 [8]) was “rescued cells from virus-mediated death” and the “EV1 production in RPE cells” value (EV1 [11]) was “lowered the production of EV1”. It also gave a CC50 (in vitro) of over 30000 nM.
In the case of `COC1=CC(c2cc3ccccc3[nH]2)=N/C1=C\c1[nH]c(C)cc1C` [Obatoclax], the EC50 (EV1 [4]) is reported as 120 ± 10 nM, the EC50 (HMPV-GFP [5]) is reported as 120 ± 20 nM and the “Initial screening: FLUAV-mediated GFP expression” value (FLUAV-GFP [6]) is reported as “lowered GFP expression without detectable cytotoxicity”. For the same compound, the “SI (CC50/EC50)” value (FLUAV-GFP [6]) was 31, the EC50 (RVFV-RFP [7]) was 320 ± 90 nM and the “Initial screening: rescue of EV1-infected cells” value (EV1 [8]) was “rescued cells from virus-mediated death”. The “SI (CC50/EC50)” value (EV1 [8]) was 25, the viability at 0.01 µM (FLUAV-GFP [9]) was 60% and the viability at 0.02 µM (FLUAV-GFP [9]) was 72%. The viability at 0.05 µM (FLUAV-GFP [9]) was 80%, the viability at 0.15 µM (FLUAV-GFP [9]) was 90% and the viability at 0.44 µM (FLUAV-GFP [9]) was 76%. The “Initial screening: HMPV-mediated GFP expression” value (HMPV-GFP [10]) was “lowered GFP expression without detectable cytotoxicity”, the “EV1 production in RPE cells” value (EV1 [11]) was “lowered the production of EV1” and the viability at 24 h, 0.01 μM [12] was 81%. For the same compound, the viability at 24 h, 0.02 μM [12] was 77%, the viability at 24 h, 0.05 μM [12] was 78% and the viability at 24 h, 0.15 μM [12] was 81%. The viability at 24 h, 0.44 μM [12] was 77%, the “RVFV-mediated RFP expression” value (RVFV-RFP [13]) was “inhibited RVFV-mediated RFP expression at non-cytotoxic concentrations” and the “HSV-2 production in RPE cells” value (HSV-2 [14]) was “lowered the production of HSV-2”. For the same compound, the EC50 (FLUAV-GFP [15]) was 100 ± 10 nM, the EC50 (HSV-2 [16]) was 100 ± 20 nM and the EC50 (RVFV) was 40 ± 10 nM. The “Initial screening: rescue of HSV-2-infected cells” value (HSV-2 [17]) was “rescued cells from virus-mediated death”, the “SI (CC50/EC50)” value (HSV-2 [17]) was 12 and the EC50 (FLUAV) was 40 ± 10 nM.
For `Cc1c(-c2ccc(-c3ccccc3F)cc2)nc2ccc(F)cc2c1C(=O)O` [Brequinar], the “SI (CC50/EC50)” value (HIV-1 [1]) was over 750, the “SI (CC50/EC50)” value (HIV-1 [1]; listed as brequinar) was over 750 and the EC50 (HIV-1 [2]) was 40 ± 10 nM. For the same compound, the CC50 at 24 h [3] was over 30000 nM.
For `Nc1nc(O)c2ncn(COC(CO)CO)c2n1` [Ganciclovir], the “HSV-2 production in RPE cells” value (HSV-2 [14]) was “lowered the production of HSV-2”, the CC50 (in vitro) was over 30000 nM and the EC50 (HSV-2 [16]) was 40 ± 10 nM. For the same compound, the “Initial screening: rescue of HSV-2-infected cells” value (HSV-2 [17]) was “rescued cells from virus-mediated death”.
